Assay: Hygroscopicity by DVS at 25° C.
Type: physicochemical
Experimental: Hygroscopicity data of samples were collected using an ADVENTURE series dynamic vapor phase adsorption system (DVS) under N2 protection. Sample dosage ~30 mg. The testing method for anhydrous crystal form is as follows: • 1) Relative humidity increase process: 0% RH to 90% RH at a rate of 10% RH/stage; 90% RH to 95% RH at a rate of 5% RH/stage; • 2) Relative humidity reduction process: 95% RH to 90% RH at a rate of 5% RH/stage; 90% RH to 5% RH at a rate of 10% RH/stage. H Nuclear Magnetic Resonance Spectroscopy (H-NMR)

O=C1CO[C@H](c2cn(-c3ccc(Br)cc3)nc2-c2ccc(F)cc2)N1CCc1ccc2[nH]c(=O)[nH]c2c1 [Crystal form A]
hygroscopicity (DVS at 25° C.): hardly hygroscopic | weight gain (DVS) (at 80% RH, 25° C.): 0.14% | crystal form after DVS testing (XRPD) (before and after DVS test): unchanged

Reference: patent publication US12686674B2, “Crystal form of compound represented by formula I, and preparation therefor and application thereof” (Shanghai Zhimeng Biopharma, Inc., priority 2021, dated 2026)
